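Cells were grown in 96-well plates and exposed to each compound for 48 hours at five concentrations; endpoints were interpolated linearly between bracketing concentrations, or set to the highest concentration if not reached. GI50: concentration for 50% inhibition of growth.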 Calls of active or inactive are those of the source. No stated cut-off is given here; in the data, active = GI50 up to about 1.1 µM and inactive = higher.
How the values were obtained:
Experiment in all cases: NCI tumour cell line growth inhibition, 48 h
786-0 = system: 786-0
SW-620 = system: SW-620
A549 = system: A549
LXFL 529 = system: LXFL 529
OVCAR-8 = system: OVCAR-8
SF-539 = system: SF-539
UO-31 = system: UO-31
U-251 = system: U-251
DLD-1 = system: DLD-1
SF-268 = system: SF-268
RXF 393 = system: RXF 393
COLO 205 = system: COLO 205
MOLT-4 = system: MOLT-4
ACHN = system: ACHN
HCC 2998 = system: HCC 2998
OVCAR-5 = system: OVCAR-5
HCT-15 = system: HCT-15
NCI-H460 = system: NCI-H460
UACC-62 = system: UACC-62
LOX IMVI = system: LOX IMVI
SNB-75 = system: SNB-75
K562 = system: K562
OVCAR-4 = system: OVCAR-4
RPMI-8226 = system: RPMI-8226
OVCAR-3 = system: OVCAR-3
SK-MEL-28 = system: SK-MEL-28
A498 = system: A498
HT-29 = system: HT-29
M14 = system: M14
CCRF-CEM = system: CCRF-CEM
SN12C = system: SN12C
HCT-116 = system: HCT-116
KM12 = system: KM12
KM-20L2 = system: KM-20L2
NCI-H522 = system: NCI-H522
DMS-114 = system: DMS-114
NCI-H23 = system: NCI-H23
TK-10 = system: TK-10
SK-MEL-5 = system: SK-MEL-5
IGROV-1 = system: IGROV-1
SNB-19 = system: SNB-19
HOP-62 = system: HOP-62
CAKI-1 = system: CAKI-1
HOP-92 = system: HOP-92
Malme-3M = system: Malme-3M
HL-60 = system: HL-60
NCI-H226 = system: NCI-H226
EKVX = system: EKVX
HOP-18 = system: HOP-18
DMS-273 = system: DMS-273
SK-MEL-2 = system: SK-MEL-2
SK-OV-3 = system: SK-OV-3
SR = system: SR
M19-MEL = system: M19-MEL
SNB-78 = system: SNB-78

Compound: CN1CCN(CN2C(=O)C3C4C=CC(C3C2=O)C2C3C(=O)N(CN5CCN(C)CC5)C(=O)C3C42)CC1 (centres undefined)
- GI50 (786-0): 18.4 µM (inactive)
- GI50 (SW-620): 16.4 µM (inactive)
- GI50 (A549): 18.6 µM (inactive)
- GI50 (LXFL 529): 23.8 µM (inactive)
- GI50 (OVCAR-8): 24.7 µM (inactive)
- GI50 (SF-539): 24.7 µM (inactive)
- GI50 (UO-31): 32.1 µM (inactive)
- GI50 (U-251): 18.2 µM (inactive)
- GI50 (DLD-1): 24.1 µM (inactive)
- GI50 (SF-268): 17.2 µM (inactive)
- GI50 (RXF 393): 20.7 µM (inactive)
- GI50 (COLO 205): 20.2 µM (inactive)
- GI50 (MOLT-4): 29.9 µM (inactive)
- GI50 (ACHN): 19.1 µM (inactive)
- GI50 (HCC 2998): 27.7 µM (inactive)
- GI50 (OVCAR-5): 22.1 µM (inactive)
- GI50 (HCT-15): 14.6 µM
- GI50 (NCI-H460): 13.5 µM (inactive)
- GI50 (UACC-62): 24.1 µM (inactive)
- GI50 (LOX IMVI): 17.4 µM (inactive)
- GI50 (SNB-75): 27.7 µM (inactive)
- GI50 (K562): 28.2 µM (inactive)
- GI50 (OVCAR-4): 24.5 µM (inactive)
- GI50 (RPMI-8226): 34.2 µM (inactive)
- GI50 (OVCAR-3): 29.1 µM (inactive)
- GI50 (SK-MEL-28): 19.3 µM (inactive)
- GI50 (A498): > 100 µM (inactive)
- GI50 (HT-29): 45.9 µM (inactive)
- GI50 (M14): 21.3 µM (inactive)
- GI50 (CCRF-CEM): 22 µM (inactive)
- GI50 (SN12C): 22.5 µM (inactive)
- GI50 (HCT-116): 13 µM (inactive)
- GI50 (KM12): 32.7 µM (inactive)
- GI50 (KM-20L2): 25.5 µM (inactive)
- GI50 (NCI-H522): 12.5 µM (inactive)
- GI50 (DMS-114): 19.6 µM (inactive)
- GI50 (NCI-H23): 28.7 µM (inactive)
- GI50 (TK-10): 31.1 µM (inactive)
- GI50 (SK-MEL-5): 30.4 µM (inactive)
- GI50 (IGROV-1): 42.6 µM (inactive)

Compound: COc1ccc(C[C@H](N)C(=O)N2C[C@@H](CO)C[C@@H](n3ccc(=O)[nH]c3=O)C2)cc1
- GI50 (SW-620): > 100 µM (inactive)
- GI50 (A549): > 100 µM (inactive)
- GI50 (SNB-19): > 100 µM (inactive)
- GI50 (LXFL 529): > 100 µM (inactive)
- GI50 (OVCAR-8): > 100 µM (inactive)
- GI50 (HOP-62): > 100 µM (inactive)
- GI50 (CAKI-1): > 100 µM (inactive)
- GI50 (SF-539): > 100 µM (inactive)
- GI50 (UO-31): > 100 µM (inactive)
- GI50 (U-251): > 100 µM (inactive)
- GI50 (DLD-1): > 100 µM (inactive)
- GI50 (SF-268): > 100 µM (inactive)
- GI50 (RXF 393): > 100 µM (inactive)
- GI50 (COLO 205): > 100 µM (inactive)
- GI50 (MOLT-4): > 100 µM (inactive)
- GI50 (ACHN): > 100 µM (inactive)
- GI50 (HOP-92): > 100 µM (inactive)
- GI50 (HCC 2998): > 100 µM (inactive)
- GI50 (OVCAR-5): > 100 µM (inactive)
- GI50 (HCT-15): > 100 µM
- GI50 (Malme-3M): > 100 µM (inactive)
- GI50 (NCI-H460): > 100 µM (inactive)
- GI50 (UACC-62): > 100 µM (inactive)
- GI50 (LOX IMVI): > 100 µM (inactive)
- GI50 (HL-60): > 100 µM (inactive)
- GI50 (NCI-H226): > 100 µM (inactive)
- GI50 (K562): > 100 µM (inactive)
- GI50 (EKVX): > 100 µM (inactive)
- GI50 (OVCAR-4): > 100 µM (inactive)
- GI50 (RPMI-8226): > 100 µM (inactive)
- GI50 (OVCAR-3): > 100 µM (inactive)
- GI50 (SK-MEL-28): > 100 µM (inactive)
- GI50 (HOP-18): > 100 µM (inactive)
- GI50 (HT-29): > 100 µM (inactive)
- GI50 (DMS-273): > 100 µM (inactive)
- GI50 (SK-MEL-2): > 100 µM (inactive)
- GI50 (SK-OV-3): > 100 µM (inactive)
- GI50 (M14): > 100 µM (inactive)
- GI50 (CCRF-CEM): > 100 µM (inactive)
- GI50 (SR): > 100 µM (inactive)
- GI50 (SN12C): > 100 µM (inactive)
- GI50 (HCT-116): > 100 µM (inactive)
- GI50 (KM12): > 100 µM (inactive)
- GI50 (KM-20L2): > 100 µM (inactive)
- GI50 (M19-MEL): > 100 µM (inactive)
- GI50 (NCI-H522): > 100 µM (inactive)
- GI50 (DMS-114): > 100 µM (inactive)
- GI50 (NCI-H23): > 100 µM (inactive)
- GI50 (TK-10): > 100 µM (inactive)
- GI50 (SK-MEL-5): > 100 µM (inactive)
- GI50 (IGROV-1): > 100 µM (inactive)

Compound: COc1cc(Cn2c3ccccc3c3cc(C)cc(OC)c32)cc2c1[nH]c1ccccc12
- GI50 (786-0): > 25 µM (inactive)
- GI50 (SNB-19): > 25 µM (inactive)
- GI50 (OVCAR-8): 10.5 µM (inactive)
- GI50 (UO-31): > 25 µM (inactive)
- GI50 (U-251): > 25 µM (inactive)
- GI50 (DLD-1): > 25 µM (inactive)
- GI50 (COLO 205): > 25 µM (inactive)
- GI50 (HCC 2998): > 25 µM (inactive)
- GI50 (OVCAR-5): > 25 µM (inactive)
- GI50 (Malme-3M): > 25 µM (inactive)
- GI50 (RPMI-8226): > 25 µM (inactive)
- GI50 (OVCAR-3): 10.2 µM (inactive)
- GI50 (SK-MEL-28): > 25 µM (inactive)
- GI50 (SK-MEL-2): > 25 µM (inactive)
- GI50 (SK-OV-3): > 25 µM (inactive)
- GI50 (SN12C): > 25 µM (inactive)
- GI50 (HCT-116): > 25 µM (inactive)
- GI50 (SNB-78): 23.1 µM (inactive)
- GI50 (M19-MEL): > 25 µM (inactive)
- GI50 (DMS-114): 20 µM (inactive)
- GI50 (TK-10): > 25 µM (inactive)
- GI50 (SK-MEL-5): > 25 µM (inactive)
- GI50 (IGROV-1): > 25 µM (inactive)
